The numbers were not newly measured in patent US11504333B2, “Pharmaceutical composition” (NOVARTIS AG, priority 2017, dated 2022), which cites them from elsewhere.

“Also recorded” adds a separate entry of the source. Like-named read-outs stand apart in the source and are kept apart here.

Assay in data set [1]: not given
The source holds these as a separate data set.

Regarding `CC(C)(C)c1nc(-c2cccc(NS(=O)(=O)c3c(F)cccc3F)c2F)c(-c2ccnc(N)n2)s1.CS(=O)(=O)O` [Compound A, N-{3-[5-(2-Amino-4-pyrimidinyl)-2-(1,1-dimethylethyl)-1,3-thiazol-4-yl]-2-fluorophenyl}-2,6-difluorobenzenesulfonamide, methanesulfonate salt], the Permeability entry was “high permeability”. The “Solubility (general)” value in data set [1] (aqueous, methanesulfonate salt) is “low solubility; also recorded: poor aqueous solubility”. Besides, the Solubility result in data set [1] (slightly acidic, neutral pH, and basic media) is reported as “practically insoluble”. Also, the Solubility result in data set [1] (strongly acidic aqueous media) was “very slightly soluble”.
